# Source: article PMC6897379 (Clinical cancer research : an official journal of the …, 2019)
# Like-named read-outs stand apart in the source and are kept apart here.
# What was measured:
# [1] = tested on: relapsed/refractory solid tumors or acute leukemia; assay: Phase 2 trial; format: in vivo, human
# [2] = Phase 2 trial toxicity monitoring; format: in vivo, human
# [3] = Plasma pharmacokinetics in children and adolescents, with UGT1A1 phenotype; format: in vivo, human; settings: for concentration at 4 day: 80 mg/m^2, Alisertib Cmin Median (range), day 4, I/E, I, P
# [4] = Toxicity versus germline AURKA genotype; format: in vivo, human
# ALL-8 xenograft = assay: ALL-8 xenograft, comparison of dosing schedules; format: in vivo, NOD/SCID mice
# ALL-19 xenograft = assay: ALL-19 xenograft, comparison of dosing schedules; format: in vivo, NOD/SCID mice
# [5] = cited from earlier work
# [6] = children, cited from earlier work
# [7] = tested on: relapsed or refractory solid tumors; settings: cited from earlier work
# [8] = mice receiving 10 mg/kg; cited from earlier work
# NBL xenografts = settings: PPTP; cited from earlier work
# ALL xenografts = settings: PPTP; cited from earlier work
# [9] = tested on: pediatric solid tumor models; settings: cited from earlier work
# [10] = tested on: p53-wildtype, therapy-refractory NBL cell lines; settings: cited from earlier work
# [11] = tested on: atypical teratoid rhabdoid (ATRT) cell lines; settings: ATRT cell lines that overexpress AAK with SMARCB1 mutations; cited from earlier work
# [12] = adults; twice daily for 7 days; DLT neutropenia and stomatitis; cited from earlier work
# [13] = Acute Lymphoblastic Leukemia, 10 response evaluable
# [14] = Ewing Sarcoma, 10 response evaluable
# [15] = Germ Cell Tumor, 7 response evaluable
# [16] = Hepatoblastoma, 8 response evaluable
# [17] = Neuroblastoma (MIBG Evaluable), 24 response evaluable
# [18] = Neuroblastoma (Measurable), 24 response evaluable
# [19] = Non-Rhabdo Soft Tissue Sarcoma, 10 response evaluable
# [20] = Osteosarcoma, 10 response evaluable
# [21] = Rhabdoid Tumors, 4 response evaluable
# [22] = Rhabdomyosarcoma, 10 response evaluable
# [23] = Total, all strata, 137 response evaluable
# [24] = Wilms tumor, 10 response evaluable
# [25] = human, in vivo, 1 cycle (21 days)
# [26] = Schedule A, 10.4 mg/kg oral gavage twice daily × 7 days
# [27] = Schedule A, twice daily × 7 days
# [28] = Schedule B, 10.4 mg/kg oral gavage twice daily × 5 days × 3 weeks
# [29] = Schedule B, twice daily × 5 days × 3 weeks
# [30] = adults, 50 mg enteric coated tablets
# [31] = population PK model, 363 adults, 7 single agent trials
smiles,measurement,setting,value
"COc1cc(Nc2ncc3c(n2)-c2ccc(Cl)cc2C(c2c(F)cccc2OC)=NC3)ccc1C(=O)O [alisertib, Alisertib]",Non-responders,[1]; [13],1
same,Progressive Disease,[1]; [13],6
same,Stable Disease n patients,[1]; [13],3 n patients
same,Non-responders,"[1]; Acute Myeloid Leukemia, 10 response evaluable",10
same,Non-responders,[1]; [14],2
same,Progressive Disease,[1]; [14],5
same,Stable Disease n patients,[1]; [14],3 n patients
same,Non-responders,[1]; [15],1
same,Progressive Disease,[1]; [15],4
same,Stable Disease n patients,[1]; [15],2 n patients
same,Stable Disease cycles administered,[1]; Hepatoblastoma,5 cycles
same,Non-responders,[1]; [16],2
same,Progressive Disease,[1]; [16],4
same,Stable Disease n patients,[1]; [16],1 n patients
same,Stable Disease median (range) cycles administered,[1]; Neuroblastoma (MIBG Evaluable),13 (5–35) cycles
same,Non-responders,[1]; [17],4
same,Progressive Disease,[1]; [17],9
same,Stable Disease n patients,[1]; [17],9 n patients
same,Non-responders,[1]; [18],5
same,Progressive Disease,[1]; [18],16
same,Stable Disease n patients,[1]; [18],2 n patients
same,Stable Disease cycles administered,[1]; Non-Rhabdo Soft Tissue Sarcoma,5 cycles
same,Non-responders,[1]; [19],2
same,Progressive Disease,[1]; [19],7
same,Stable Disease n patients,[1]; [19],1 n patients
same,Responses in the other primary disease strata,"[1]; OS, EWS, RMS, ALL, AML",No responses
same,Non-responders,[1]; [20],2
same,Progressive Disease,[1]; [20],8
same,Non-responders,[1]; [21],1
same,Progressive Disease,[1]; [21],3
same,Stable Disease cycles administered,[1]; Rhabdomyosarcoma,15 cycles
same,Non-responders,[1]; [22],2
same,Progressive Disease,[1]; [22],7
same,Stable Disease n patients,[1]; [22],1 n patients
same,Non-responders,[1]; [23],33
same,Progressive Disease,[1]; [23],76
same,Stable Disease n patients,[1]; [23],23 n patients
same,Stable Disease cycles administered,[1]; Wilms tumor,31 cycles
same,Non-responders,[1]; [24],1
same,Progressive Disease,[1]; [24],7
same,Stable Disease n patients,[1]; [24],1 n patients
same,Objective responses observed,"[1]; all strata, 137 evaluable for response",Five
same,Objective response rate,[1]; children and adolescents receiving single agent alisertib,less than 5%
same,Dehydration Grade 3,"[2]; alisertib related, all cycles (n=500)",6 (1.2%) n (%)
same,Patients with fatal adverse events possibly related to alisertib,[2]; during cycle 1,two
same,ALT increased Grade 3,"[2]; human, in vivo",17 (3.4%) n (%)
same,AST increased Grade 3,"[2]; human, in vivo",10 (2%) n (%)
same,Alisertib-related grade 3 or 4 anemia,"[2]; human, in vivo",13.6%
same,Alisertib-related grade 3 or 4 leukopenia,"[2]; human, in vivo",33%
same,Alisertib-related grade 3 or 4 lymphopenia,"[2]; human, in vivo",12.2%
same,Alisertib-related grade 3 or 4 neutropenia,"[2]; human, in vivo",51.8%
same,Alisertib-related grade 3 or 4 thrombocytopenia,"[2]; human, in vivo",20.8%
same,Anemia Grade 3,"[2]; human, in vivo",63 (12.6%) n (%)
same,Anemia Grade 4,"[2]; human, in vivo",5 (1%) n (%)
same,Anorexia Grade 3,"[2]; human, in vivo",1 (0.2%) n (%)
same,Depression Grade 4,"[2]; human, in vivo",1 (0.2%) n (%)
same,Diarrhea Grade 3,"[2]; human, in vivo",2 (0.4%) n (%)
same,Dizziness Grade 3,"[2]; human, in vivo",14 (2.8%) n (%)
same,Enterocolitis Grade 3,"[2]; human, in vivo",1 (0.2%) n (%)
same,Febrile neutropenia Grade 3,"[2]; human, in vivo",18 (3.6%) n (%)
same,GGT increased Grade 3,"[2]; human, in vivo",1 (0.2%) n (%)
same,Hepatic hemorrhage Grade 5,"[2]; human, in vivo",1 (0.2%) n (%)
same,Hyperbilirubinemia Grade 3,"[2]; human, in vivo",3 (0.6%) n (%)
same,Hypersomnia Grade 3,"[2]; human, in vivo",1 (0.2%) n (%)
same,Hyperuricemia Grade 4,"[2]; human, in vivo",1 (0.2%) n (%)
same,Hypoalbuminemia Grade 3,"[2]; human, in vivo",1 (0.2%) n (%)
same,Hypocalcemia Grade 3,"[2]; human, in vivo",1 (0.2%) n (%)
same,Hypokalemia Grade 3,"[2]; human, in vivo",4 (0.8%) n (%)
same,Hypokalemia Grade 4,"[2]; human, in vivo",1 (0.2%) n (%)
same,Hyponatremia Grade 3,"[2]; human, in vivo",3 (0.6%) n (%)
same,Hypophosphatemia Grade 3,"[2]; human, in vivo",1 (0.2%) n (%)
same,INR increased Grade 3,"[2]; human, in vivo",1 (0.2%) n (%)
same,Infection Grade 3,"[2]; human, in vivo",1 (0.2%) n (%)
same,Leukopenia Grade 3,"[2]; human, in vivo",117 (23.4%) n (%)
same,Leukopenia Grade 4,"[2]; human, in vivo",48 (9.6%) n (%)
same,Lymphopenia Grade 3,"[2]; human, in vivo",47 (9.4%) n (%)
same,Lymphopenia Grade 4,"[2]; human, in vivo",14 (2.8%) n (%)
same,Nausea Grade 3,"[2]; human, in vivo",2 (0.4%) n (%)
same,Neutropenia Grade 3,"[2]; human, in vivo",124 (24.8%) n (%)
same,Neutropenia Grade 4,"[2]; human, in vivo",137 (27.4%) n (%)
same,Oral mucositis Grade 3,"[2]; human, in vivo",19 (3.8%) n (%)
same,Palmar-plantar erythrodysesthesia Grade 3,"[2]; human, in vivo",2 (0.4%) n (%)
same,Photophobia Grade 3,"[2]; human, in vivo",1 (0.2%) n (%)
same,Pneumonia Grade 3,"[2]; human, in vivo",1 (0.2%) n (%)
same,Respiratory failure Grade 5,"[2]; human, in vivo",1 (0.2%) n (%)
same,Serum amylase increased Grade 3,"[2]; human, in vivo",1 (0.2%) n (%)
same,Thrombocytopenia Grade 3,"[2]; human, in vivo",54 (10.8%) n (%)
same,Thrombocytopenia Grade 4,"[2]; human, in vivo",50 (10%) n (%)
same,Tumor lysis syndrome Grade 4,"[2]; human, in vivo",1 (0.2%) n (%)
same,Urinary tract infection Grade 3,"[2]; human, in vivo",1 (0.2%) n (%)
same,Vomiting Grade 3,"[2]; human, in vivo",2 (0.4%) n (%)
same,Patients who experienced dose limiting toxicity,[2]; [25],18 patients
same,"Patients who experienced dose limiting toxicity, percent",[2]; [25],13%
same,Oral pain Grade 3,"[2]; human, in vivo, po",5 (1%) n (%)
same,Most frequent toxicity,[2]; in vivo,myelosuppression
same,Patients exceeding the 1 μM target trough concentration on day 4,[3]; 26/39 patients,67%
same,Difference in population mean trough concentrations,"[3]; IM/PM versus EM, p 0.0091",1.05 µM
same,Patients with Cmin exceeding 1μM on day 7,"[3]; human, in vivo, 7 day",41%
same,concentration at 4 day,"[3]; human, plasma, oral, Grade ≥ 2: Yes (n=8)",1800 nM
same,concentration at 4 day,"[3]; human, plasma, oral, Grade ≥ 2, No (n=8)",2220 nM
same,concentration at 7 day,"[3]; human, plasma, oral, 80 mg/m^2, Median Cmin on day 7, cycle 1",900 nM
same,Difference in population mean trough concentrations,"[3]; with versus without ≥ grade 2 toxicities, not statistically significant",0.08 µM
same,Cycle 1 DLT No,[4]; AURKA 91 A>T VV,8
same,Grade 2+ Toxicity Yes,[4]; AURKA 91 A>T VV,8
same,Cycle 1 DLT Yes,[4]; AURKA 91 A>T WV,5
same,Grade 2+ Toxicity No,[4]; AURKA 91 A>T WV,5
same,Cycle 1 DLT Yes,[4]; AURKA 91 A>T WW,8
same,Grade 2+ Toxicity No,[4]; AURKA 91 A>T WW,9
same,Cycle 1 DLT No,[4]; AURKA 169G>A VV,2
same,Grade 2+ Toxicity No,[4]; AURKA 169G>A VV,1
same,Grade 2+ Toxicity Yes,[4]; AURKA 169G>A VV,1
same,Cycle 1 DLT No,[4]; AURKA 169G>A WV,18
same,Cycle 1 DLT Yes,[4]; AURKA 169G>A WV,3
same,Grade 2+ Toxicity No,[4]; AURKA 169G>A WV,4
same,Cycle 1 DLT Yes,[4]; AURKA 169G>A WW,10
same,Grade 2+ Toxicity No,[4]; AURKA 169G>A WW,9
same,Grade 2+ Toxicity Yes,[4]; AURKA 169G>A WW,54
same,Cycle 1 DLT No,[4]; AURKA Haplotype H1,25
same,Cycle 1 DLT Yes,[4]; AURKA Haplotype H1,5
same,Grade 2+ Toxicity No,[4]; AURKA Haplotype H1,4
same,Cycle 1 DLT Yes,[4]; AURKA Haplotype H2,8
same,Grade 2+ Toxicity No,[4]; AURKA Haplotype H2,10
same,Cycle 1 DLT Yes,[4]; Total genotyped patients,13
same,Grade 2+ Toxicity No,[4]; Total genotyped patients,14
same,Objective response,ALL-8 xenograft; Schedule A and Schedule B,neither of the treatment schedules induced an objective response
same,Median EFS Treated,ALL-8 xenograft; [26],19.8 days
same,EFS T-C,ALL-8 xenograft; [27],10.9 days
same,EFS T/C,ALL-8 xenograft; [27],2.2
same,Median EFS Treated,ALL-8 xenograft; [28],31.9 days
same,EFS T-C,ALL-8 xenograft; [29],23.0 days
same,EFS T/C,ALL-8 xenograft; [29],3.6
same,"Human cells in the bone marrow, lowest levels achieved",ALL-8 xenograft; both alisertib schedules,approximately 20%
same,"Human cells in the spleen, lowest levels achieved",ALL-8 xenograft; both alisertib schedules,5–10%
same,"Additional delay of leukemia progression, Schedule B compared with Schedule A",ALL-8 xenograft; p=0.004,12.1 days
same,Median EFS Treated,ALL-19 xenograft; [26],13.6 days
same,Leukemia progression compared with controls,"ALL-19 xenograft; Schedule A, serial peripheral blood parameters",not significantly different from that of controls
same,EFS T-C,ALL-19 xenograft; [27],7.0 days
same,EFS T/C,ALL-19 xenograft; [27],2.0
same,Median Response Score,ALL-19 xenograft; [27],PD2
same,Median EFS Treated,ALL-19 xenograft; [28],31.2 days
same,EFS T-C,ALL-19 xenograft; [29],24.6 days
same,EFS T/C,ALL-19 xenograft; [29],4.7
same,Area under concentration time curve (AUC),[5]; [30],20.9 µM·h
same,Steady state trough concentration (Cmin),[5]; [30],exceeding 1 μM
same,AUC0–24 h,[5]; patients receiving 50 mg BID,40 µM·h
same,Cmax,[5]; patients receiving 50 mg BID,1300 nM
same,Apparent clearance (CL/F),[5]; [31],4.25 L/h
same,Terminal half-life,[5]; [31],19.3 h
same,Average trough concentrations,[5]; recommended phase 2 dose of 50 mg BID for 7 days,exceeded 1 μM
same,Trough 24 hours after the first dose,[6]; 80 mg/m^2 dose level,1.1 µM
same,Cmax,[6]; recommended dose 80 mg/m^2,7.5 ± 0.1 µM
same,Duration of stable disease,"[7]; 8 children, phase 1 trial",5–35 cycles
same,Children with stable disease,"[7]; NBL (n=4) and sarcoma (n=4), of 33 response evaluable children",8
same,Recommended phase 2 dose,"[7]; children and adolescents, orally, once daily for 7 days",80 mg/m^2
same,Children with a PR,"[7]; hepatoblastoma, of 33 response evaluable children",one
same,12 h level,[8],1.2 µM
same,AUC0–24 h,[8],39 µM·h
same,Cmax,[8],16 µM
same,Xenografts with maintained complete responses,NBL xenografts,3 of 7
same,Xenografts with maintained complete responses,ALL xenografts,6 out of 6
same,Event free survival,"[9]; Wilms tumor, rhabdomyosarcoma and osteosarcoma xenograft models",Statistically significant improvement
same,Solid tumor models with objective responses,[9]; pediatric xenograft models,80%
same,Activity in cell lines,[10],active
same,Effect on cell lines,[11],induce cell death and augment radiation sensitivity
same,Recommended dose,[12],50 mg
